In brackets after ≈: the same amount, converted by molar mass. Activity calls are given as the source filed them. The calls are words filed in the database; no cut-off is given here.
Key:
MCF7 = assay: Cytotoxicity against human MCF7 cells; assay type: functional, cell-based
Pseudomonas aeruginosa [1] = assay: Antibacterial activity against Pseudomonas aeruginosa by disc diffusion method; assay type: functional
Bacillus subtilis [2] = assay: Antibacterial activity against Bacillus subtilis by disc diffusion method; assay type: functional
Escherichia coli [3] = assay: Antibacterial activity against Escherichia coli by disc diffusion method; assay type: functional
Staphylococcus aureus [4] = assay: Antibacterial activity against Staphylococcus aureus by disc diffusion method; assay type: functional
[5] = test system: Mycobacterium tuberculosis; assay: Antimycobacterial activity against dormant stage of Mycobacterium tuberculosis H37Ra ATCC 25177 assessed as minimum inhibitory concentration by XTT assay; assay type: functional
[6] = test system: Mycobacterium tuberculosis; assay: Antimycobacterial activity against active stage of Mycobacterium tuberculosis H37Ra ATCC 25177 assessed as minimum inhibitory concentration by XTT assay; assay type: functional
[7] = Antioxidant activity assessed as DPPH radical scavenging activity at 1 mg/ml relative to control; assay type: functional
Aspergillus niger = assay: Antifungal activity against Aspergillus niger; assay type: functional
Aspergillus flavus = assay: Antifungal activity against Aspergillus flavus; assay type: functional
Bacillus subtilis [8] = assay: Antibacterial activity against Bacillus subtilis NCIM 2079 measured after 12 hrs; assay type: functional
Pseudomonas aeruginosa [9] = assay: Antibacterial activity against Pseudomonas aeruginosa NCIM […] measured after 8 hrs; assay type: functional
Escherichia coli [10] = assay: Antibacterial activity against Escherichia coli NCIM 2688 measured after 8 hrs; assay type: functional
Staphylococcus aureus [11] = assay: Antibacterial activity against Staphylococcus aureus NCIM 2010 measured after 12 hrs; assay type: functional
A549 = assay: Anticancer activity against human A549 cells by MTT assay; assay type: functional, cell-based
Micrococcus luteus = assay: Antibacterial activity against Micrococcus luteus PTCC 1110; assay type: functional
Bacillus pumilus = assay: Antibacterial activity against Bacillus pumilus PTCC 1114; assay type: functional
Staphylococcus aureus [12] = assay: Antibacterial activity against Staphylococcus aureus ATCC 25923; assay type: functional
Streptococcus mutans = assay: Antibacterial activity against Streptococcus mutans PTCC 1601; assay type: functional
Bacillus subtilis [13] = assay: Antibacterial activity against Bacillus subtilis ATCC 465; assay type: functional
Enterococcus faecalis = assay: Antibacterial activity against Enterococcus faecalis ATCC 29737; assay type: functional
[14] = test system: Staphylococcus epidermidis; assay: Antibacterial activity against Staphylococcus epidermidis ATCC 12228; assay type: functional
Escherichia coli [15] = assay: Antimicrobial activity against Escherichia coli ATCC 25922; assay type: functional
HepG2 = assay: cells; assay type: functional, cell-based; details: Homo sapiens
Description: Antiproliferative activity against human HepG2 cells

## CCOC(=O)C1=C(C(=O)OCC)C2(NC1(C(=O)OCC)C(=O)OCC)C(=O)N(C)c1ccc(C)cc12 (stereo not given)
MCF7
  IC50: 20.8 µM

## COc1ccccc1N1C(=O)C2(C3=C(Nc4ccccc42)C(=O)CC(C)(C)C3)C2=C1CC(C)(C)CC2=O (stereo not given)
Pseudomonas aeruginosa [1]
  MIC: 100 µg/mL (≈ 201 µM)
Bacillus subtilis [2]
  MIC: 75 µg/mL (≈ 151 µM)
Escherichia coli [3]
  MIC: 175 µg/mL (≈ 352 µM)
Staphylococcus aureus [4]
  MIC: 75 µg/mL (≈ 151 µM)

## Cc1cc2c(c(=O)o1)C1(C(=O)N(Cc3cn(Cc4ccc(Cl)cc4)nn3)c3ccc(Cl)cc31)C(C#N)=C(N)O2 (stereo not given)
[5]
  MIC: 4.81 µg/mL (≈ 8.57 µM)
[6]
  MIC: 5.39 µg/mL (≈ 9.6 µM)

## CC1(C)CC(=O)C2=C(C1)N(c1ccccc1F)C(=O)C21C2=C(Nc3ccccc31)C(=O)CC(C)(C)C2 (stereo not given)
Pseudomonas aeruginosa [1]
  MIC: 50 µg/mL (≈ 103 µM)
Bacillus subtilis [2]
  MIC: 75 µg/mL (≈ 155 µM)
Escherichia coli [3]
  MIC: 37.5 µg/mL (≈ 77.4 µM)
Staphylococcus aureus [4]
  MIC: inactive

## O=C(c1ccc(F)cc1)C1C(c2ccc(Cl)cc2)C(CO)NC12C(=O)Nc1ccccc12 (stereo not given)
[7]
  Activity: 88.1%
Aspergillus niger
  MIC: 20 µg/mL (≈ 44.4 µM)
Aspergillus flavus
  MIC: 20 µg/mL (≈ 44.4 µM)

## Cc1ccc(Cn2cc(CN3C(=O)C4(C(C#N)=C(N)Oc5cc(C)oc(=O)c54)c4ccccc43)nn2)cc1 (stereo not given)
Bacillus subtilis [8]
  MIC90: 2.85 µg/mL (≈ 5.63 µM)
[5]
  MIC: 7.3 µg/mL (≈ 14.4 µM)
Pseudomonas aeruginosa [9]
  MIC90: 3.08 µg/mL (≈ 6.08 µM)
Escherichia coli [10]
  MIC90: 1.97 µg/mL (≈ 3.89 µM)
Staphylococcus aureus [11]
  MIC90: 4.27 µg/mL (≈ 8.43 µM)
[6]
  MIC: 14 µg/mL (≈ 27.6 µM)

## C#CCN1C(=O)[C@]2(c3ccccc31)N(C)C[C@@](C#N)(C(=O)c1c[nH]c3ccccc13)[C@@]21C(=O)Nc2ccccc21
A549
  IC50: 50 µM

## CCOC(=O)C1=C(C(=O)OCC)C2(NC1(C(=O)OCC)C(=O)OCC)C(=O)Nc1ccccc12 (stereo not given)
MCF7
  IC50: 28 µM

## Cc1cc2c(c(=O)o1)C1(C(=O)N(Cc3cn(Cc4ccc(Cl)cc4)nn3)c3ccccc31)C(C#N)=C(N)O2 (stereo not given)
[5]
  MIC: 4.39 µg/mL (≈ 8.33 µM)
[6]
  MIC: 5.21 µg/mL (≈ 9.89 µM)

## O=C1c2c(Cl)cccc2NC2(C(=O)Nc3ccccc32)N1Nc1ccccc1 (stereo not given)
Micrococcus luteus
  MIC: 8 µg/mL (≈ 20.5 µM)
Bacillus pumilus
  MIC: 4 µg/mL (≈ 10.2 µM)
Staphylococcus aureus [12]
  MIC: 2 µg/mL (≈ 5.12 µM)
Streptococcus mutans
  MIC: 8 µg/mL (≈ 20.5 µM)
Bacillus subtilis [13]
  MIC: 8 µg/mL (≈ 20.5 µM)
Enterococcus faecalis
  MIC: 128 µg/mL (≈ 328 µM)
[14]
  MIC: 4 µg/mL (≈ 10.2 µM)
Escherichia coli [15]
  MIC: 32 µg/mL (≈ 81.9 µM)

## N[C@@H](CCC(=O)N[C@@H](CS)C(=O)NCC(=O)O)C(=O)O
[7]
  Activity: 92%

## NC[C@H]1O[C@H](O[C@H]2[C@H](O)[C@@H](O[C@H]3O[C@H](CO)[C@@H](O)[C@H](N)[C@H]3O)[C@H](N)C[C@@H]2N)[C@H](O)[C@@H](O)[C@@H]1O [KANAMYCIN]
Bacillus subtilis [8]
  MIC90: 1.35 µg/mL (≈ 2.79 µM)
Pseudomonas aeruginosa [9]
  MIC90: 0.49 µg/mL (≈ 1.01 µM)
Escherichia coli [10]
  MIC90: 1.62 µg/mL (≈ 3.34 µM)
Staphylococcus aureus [11]
  MIC90: > 30 µg/mL

## O=C(c1ccc(F)cc1)C1C(c2ccc(Br)cc2)C(CO)NC12C(=O)Nc1ccccc12 (stereo not given)
[7]
  Activity: 87.4%
Aspergillus niger
  MIC: 20 µg/mL (≈ 40.4 µM)
Aspergillus flavus
  MIC: 30 µg/mL (≈ 60.6 µM)

## O=C(c1ccc(F)cc1)C1C(c2ccc(Cl)cc2)CNC12C(=O)Nc1ccccc12 (stereo not given)
[7]
  Activity: 88.7%

## CC(C)CC1NC2(C(=O)Nc3ccccc32)C(C(=O)c2ccc(F)cc2)C1c1ccccc1 (stereo not given)
Aspergillus niger
  MIC: 20 µg/mL (≈ 45.2 µM)
Aspergillus flavus
  MIC: 20 µg/mL (≈ 45.2 µM)

## CC1(C)CC(=O)C2=C(C1)N(c1ccccc1S)C(=O)C21C2=C(Nc3ccccc31)C(=O)CC(C)(C)C2 (stereo not given)
Pseudomonas aeruginosa [1]
  MIC: 150 µg/mL (≈ 301 µM)
Bacillus subtilis [2]
  MIC: 2.5 µg/mL (≈ 5.01 µM)
Escherichia coli [3]
  MIC: 188 µg/mL (≈ 376 µM)
Staphylococcus aureus [4]
  MIC: 225 µg/mL (≈ 451 µM)

## CC1(C)CC(=O)C2=C(C1)OC(N)=C(C#N)C21C(=O)N(Cc2cn(Cc3ccc(Cl)cc3)nn2)c2ccc(Cl)cc21 (stereo not given)
Bacillus subtilis [8]
  MIC90: 1.14 µg/mL (≈ 1.98 µM)
[5]
  MIC: 8.07 µg/mL (≈ 14 µM)
Pseudomonas aeruginosa [9]
  MIC90: 5.29 µg/mL (≈ 9.19 µM)
Escherichia coli [10]
  MIC90: 1.78 µg/mL (≈ 3.09 µM)
Staphylococcus aureus [11]
  MIC90: 3.55 µg/mL (≈ 6.17 µM)
[6]
  MIC: > 50 µg/mL

## Cc1ccc(Cn2cc(CN3C(=O)C4(C(C#N)=C(N)Oc5cc(C)oc(=O)c54)c4cc(Cl)ccc43)nn2)cc1 (stereo not given)
Bacillus subtilis [8]
  MIC90: 7.19 µg/mL (≈ 13.3 µM)
[5]
  MIC: 11.6 µg/mL (≈ 21.4 µM)
Pseudomonas aeruginosa [9]
  MIC90: 4.88 µg/mL (≈ 9.02 µM)
Escherichia coli [10]
  MIC90: 2.65 µg/mL (≈ 4.9 µM)
Staphylococcus aureus [11]
  MIC90: 2.41 µg/mL (≈ 4.45 µM)
[6]
  MIC: > 50 µg/mL

## O=C1C(=O)c2ccccc2C2=C1C1(C(=O)Nc3ccc(F)cc31)N1NN=NC1=N2 (stereo not given)
HepG2
  IC50: 2.9 µM

Reference: ChEMBL document CHEMBL5226286, “The application of isatin-based multicomponent-reactions in the quest for new bioactive and druglike molecules” (Eur J Med Chem, 2021)
